Laboratory results reported in US20230167088A1, “1-PYRAZINYLPYRAZOLYL-3-OXYALKYL ACIDS AND THEIR DERIVATIVES, AND THEIR USE FOR CONTROL OF UNDESIRED PLANT GROWTH” (BAYER AKTIENGESELLSCHAFT, priority 2020, published 2023).

Columns and labels:
ALOMY [1] = assay: Herbicidal post-emergence action 1a (greenhouse pots, visual rating); format: in vivo, Alopecurus myosuroides; details: rated visually about 3 weeks after treatment, 100% = plants have died, 0% = like control plants
Outline: (§1)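 Weeds and crops sown in sandy loam in greenhouse pots were sprayed post-emergence at the one-leaf stage (2–3 weeks after sowing) with WP or EC formulations plus 0.5% additive at 600 l/ha water, 320 and/or 80 g/ha. About 3 weeks later damage was rated visually against untreated controls (0% = no effect, 100% = dead).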

AVEFA = assay: Herbicidal pre-emergence action 2a (greenhouse pots, visual scoring); format: in vivo, Avena fatua; details: dosage 320 g/ha, visual scoring after about 3 weeks
Outline: (§2)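 Sow, cover with soil, spray soil surface (WP or EC in water, 0.5% additive, 600 l/ha; 320 and/or 80 g/ha), grow in greenhouse ~3 weeks, score visually in % against untreated controls.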

AMARE [2] = assay: as above; format: in vivo, Amaranthus retroflexus; details: dosage 320 g/ha, visual scoring after about 3 weeks vs untreated controls
Outline: as §2

AMARE [3] = assay: Herbicidal pre-emergence action 2b (doubly sown, 1280 g/ha); format: in vivo, Amaranthus retroflexus; details: doubly sown pots, dosage 1280 g/ha, visual scoring after about 3 weeks
Outline: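 Read-out: visual percentage damage relative to untreated controls, scored after roughly 3 weeks in the greenhouse, where 100% means plants died and 0% equals control. Seeds were sown two species per pot in sandy loam and covered before the compounds, formulated as WP or EC with 0.5% additive, were sprayed onto the soil at 600 L/ha.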

VIOTR = assay: Herbicidal post-emergence action 1a (greenhouse pots, visual rating); format: in vivo, Viola tricolor; details: visual rating about 3 weeks after treatment
Outline: as §1

MATIN [4] = assay: as above; format: in vivo, Matricaria inodora; details: visual rating about 3 weeks after treatment
Outline: as §1

ALOMY [5] = assay: Herbicidal pre-emergence action 2a (greenhouse pots, visual scoring); format: in vivo, Alopecurus myosuroides; details: dosage 320 g/ha, visual scoring after about 3 weeks
Outline: as §2

POAAN = assay: Herbicidal post-emergence action 1b (twin sowing, 1280 g/ha); format: in vivo, Poa annua; details: dosage 1280 g/ha, visual rating about 3 weeks after treatment
Outline: (§3)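 Sow paired weed species in sandy loam pots and grow in the greenhouse; at the one-leaf stage (2–3 weeks) spray green parts with compound suspension or emulsion containing 0.5% additive at 600 L water/ha; keep about 3 weeks, then score damage visually relative to untreated plants.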

PHBPU = assay: Herbicidal post-emergence action 1a (greenhouse pots, visual rating); format: in vivo, Pharbitis purpurea; details: visual rating about 3 weeks after treatment
Outline: as §1

STEME = assay: Herbicidal post-emergence action 1b (twin sowing, 1280 g/ha); format: in vivo, Stellaria media; details: dosage 1280 g/ha, visual rating about 3 weeks after treatment
Outline: as §3

MATIN [6] = assay: as above; format: in vivo, Matricaria inodora; details: dosage 1280 g/ha, visual rating about 3 weeks after treatment
Outline: as §3

Row | Structure (SMILES) | Post-emergence action against ALOMY in % (ALOMY [1]; Dosage 80 g/ha) [%] | Post-emergence action against ALOMY in % (ALOMY [1]; Dosage 320 g/ha) [%] | Pre-emergence action against AVEFA in % (AVEFA) [%] | Pre-emergence action against AMARE in % (AMARE [2]) [%] | Pre-emergence action at 1280 g/ha against AMARE in % (AMARE [3]) [%] | Post-emergence action against VIOTR in % (VIOTR; dosage 80 g/ha) [%] | Post-emergence action against VIOTR in % (VIOTR; dosage 320 g/ha) [%] | Post-emergence action against MATIN in % (MATIN [4]; dosage 320 g/ha) [%] | Pre-emergence action against ALOMY in % (ALOMY [5]) [%] | Post-emergence action at 1280 g/ha against POAAN in % (POAAN) [%] | Post-emergence action against PHBPU in % (PHBPU; dosage 320 g/ha) [%] | Post-emergence action at 1280 g/ha against STEME in % (STEME) [%] | Post-emergence action against PHBPU in % (PHBPU; dosage 80 g/ha) [%] | Post-emergence action at 1280 g/ha against MATIN in % (MATIN [6]) [%] | Post-emergence action against MATIN in % (MATIN [4]; dosage 80 g/ha) [%]
1 | COC(=O)[C@@H](C)Oc1nn(-c2cnccn2)c(-c2ccc(F)c(F)c2)c1Br [Example I-45] | 90 | 90 | 80 | 100 | 100 | 80 | 90 | 80 | 100 | 100 | 90 | 100 |  |  | 
2 | COC(=O)COc1nn(-c2cnccn2)c(-c2ccc(F)c(F)c2)c1Br [Example I-15] | 80 | 80 | 80 | 100 |  | 90 | 90 | 80 | 90 |  | 90 |  | 90 |  | 
3 | C[C@@H](Oc1nn(-c2cnccn2)c(-c2cccc(F)c2)c1Br)C(=O)O [Example I-48] | 90 |  | 90 | 100 | 100 |  |  |  | 100 | 100 |  | 100 |  | 100 | 
4 | COC(=O)COc1nn(-c2cnccn2)c(-c2ccc(F)nc2)c1Br [Example I-11] |  | 100 |  | 90 | 100 | 90 | 100 | 80 | 100 | 100 | 80 | 90 | 80 |  | 
5 | CCOC(=O)COc1nn(-c2cnccn2)c(-c2ccc(F)nc2)c1Br [Example I-52, ethyl {[4-bromo-5-(6-fluoropyridin-3-yl)-1-(pyrazin-2-yl)-1H-pyrazol-3-yl]oxy}acetate] | 80 | 90 |  | 100 | 90 |  | 80 |  | 90 |  |  |  | 80 | 90 | 
6 | CCOC(=O)COc1nn(-c2cnccn2)c(-c2ccccc2)c1Br [Example I-01] |  | 90 |  | 100 | 100 | 90 | 90 | 90 | 80 |  | 80 | 100 | 80 | 90 | 80
7 | COC(=O)[C@@H](C)Oc1nn(-c2cnccn2)c(-c2cccc(F)c2)c1Br [Example I-20] | 80 | 90 | 80 | 100 | 100 | 80 |  |  | 90 | 100 | 90 | 100 |  | 100 | 
8 | COC(=O)C(C)Oc1nn(-c2cnccn2)c(-c2ccnc(F)c2)c1Cl (racemic) [Example I-05] | 100 | 100 | 80 | 100 | 100 | 90 | 90 |  | 100 | 100 |  | 90 |  |  | 
9 | COC(=O)[C@@H](C)Oc1nn(-c2cnccn2)c(-c2cncc(F)c2)c1C#N [Example I-40] | 80 | 90 |  | 90 | 100 |  | 80 |  | 100 | 100 | 90 | 100 |  | 100 | 
10 | COC(=O)C(C)Oc1nn(-c2cnccn2)c(-c2cncc(F)c2)c1Br (racemic) [Example I-08] | 100 | 100 | 90 | 100 |  | 90 | 90 | 90 | 100 |  | 90 |  | 80 |  | 80
11 | COC(=O)C(C)Oc1nn(-c2cnccn2)c(-c2ccnc(F)c2)c1Br (racemic) [Example I-10] | 90 | 90 | 90 | 90 | 100 | 90 | 100 |  | 100 | 100 |  | 90 |  |  | 
12 | COC(=O)COc1nn(-c2cnccn2)c(-c2cncc(F)c2)c1Br [Example I-07] | 90 | 100 | 90 | 100 |  | 80 | 90 | 90 | 100 |  | 90 |  | 90 |  | 90
